# Article PMC12209172, “Poly(ADP-ribose)polymerase 2 is zinc-dependent enzyme and nucleosome reorganizer” (Cellular and Molecular Life Sciences: CMLS, 2025)
# “And” between values parts separate entries of the source, which are not always exact repeats. Equal values may be shown once.
# Columns and labels:
# [1] = molecular target: T1, PARP2-nucleosome complexes (Mus musculus, UniProt O88554); assay: spFRET microscopy in solution of nucleosomes and PARP2-nucleosome complexes; conditions: for effect of ions on the nucleosome structure: NP nucleosomes without PARP2, 5 mM ions; for effect of ions on the structure of nucleosomes in PARP2-nucleosome complexes: Zn2+ 0.3 mM, Ca2+ 5 mM or Mg2+ 5 mM
# T1 construct: Recombinant mouse full-length PARP2 was obtained in the baculovirus expression system; made in house; host or cells: PARP2: Sf9 insect cells (baculovirus), gift of Prof; O. Lavrik; nucleosomes assembled in house
# Method: In the study of nucleosome-PARP2 interactions, nucleosomes (1-2 nM) were incubated with PARP2 (12.5-200 nM) in buffer A (50 mM Tris-HCl pH 7.5; 40 mM NaCl; 0.5 mM β-mercaptoethanol (β-ME); 0.1% NP40) at 25 °C for 30 min. When indicated, buffer A was supplemented with 50 μM - 5 mM ZnCl2, 5 mM CaCl2 or 5 mM MgCl2. […] […] measurements in solution were performed as described previously. Each measured single nucleosome was characterized by FRET between Cy3 and Cy5 labels calculated as a proximity ratio (EPR):1 [drawing 1] Where I3 and I5 are fluorescence intensities of Cy3 and Cy5, respectively, and coefficients 0.19 and 0.81 provide correction for the spectral cross-talk between Cy3 and Cy5 detection channels. EPR is a FRET efficiency not corrected for quantum yields of labels and an instrumentation factor. Relative frequency distributions of nucleosomes by EPR values, i.e. EPR profiles, (2000-5000 nucleosomes per experiment; 3 independent experiments) were plotted and further analyzed as a superposition of several normal (Gaussian) distributions for nucleosomes or nucleosome-PARP2 complexes. Since nucleosomes tend to aggregate when PARP2 is added (especially at high concentrations), treatment of signals measured from nucleosomes and their complexes included mandatory rejection of signals from any aggregates that are clearly recognized due to their slow diffusion rate and/or abnormally high fluorescence intensity.
# [2] = molecular target: T2, PARP2 (Mus musculus, UniProt O88554); assay: Western blot analysis of NAD+-dependent PARylation by PARP2 in PARP2-nucleosome complexes; format: biochemical; set-up: Recombinant mouse full-length PARP2 was obtained in the baculovirus expression system; made in house; host or cells: PARP2: Sf9 insect cells (baculovirus), gift of Prof; O. Lavrik; nucleosomes assembled in house; conditions: for effect of EDTA on PARylation: EDTA 10 mM
# Method: Probes were subjected to electrophoresis in 4–12% bis-Tris gradient gel in the NuPAGE™ MES SDS Running Buffer at 130 V. […] The membrane was incubated for 60 min in the PBS-T solution supplemented with the 5% skimmed milk. Then the membrane was incubated with mouse monoclonal antibodies 10 H followed by incubation with the secondary anti-mouse antibodies conjugated with horseradish peroxidase (Bio-Rad, Hercules, CA, USA). The washing procedure was carried out after each step of incubation. Immunodetection was performed using the Super Signal West Pico Chemiluminescent Substrate (Thermo Fisher Scientific, Waltham, MA, USA) for 3 min. The Western blot experiments were performed in three independent repetitions.
# [3] = molecular target: T3, WGR domain of PARP2 (Homo sapiens, UniProt Q9UGN5); assay: Tryptophan fluorescence spectroscopy of the WGR domain titrated with divalent cations (one site binding fit); conditions: for Kd: Trp fluorescence, one site binding fit, 10 mM HEPES pH 8.0, 150 mM NaCl, residual EDTA present, read-out: dissociation constant of the divalent cation-WGR domain complex; for effect of ions on intensity of tryptophan fluorescence of the WGR domain: WGR domain 5 µM
# T3 construct: WGR domain of PARP2 (residues 77–220) into pET-15b-TEV expression vector; 6xHis (pET-15b-TEV) (N, cleaved yes); made in house; host or cells: Escherichia coli Rosetta2 (DE3) pLysS
# Method: Fluorescence spectra of Trp residues were measured in the 300–450 nm spectral range at the 270 nm excitation wavelengths using the Cary Eclipse spectrofluorometer (Varian/Agilent, USA).
# Fluorescence of WGR domain was measured at 0.5 or 5 µM in a buffer containing 10 mM HEPES (pH 8.0), 150 mM NaCl and 0.73 or 7.3 µM EDTA, respectively. Solutions were complemented with ZnCl2 (0.2–308 µM) or MgCl2 (15–5000 µM), or CaCl2 (8–5000 µM) dissolved in a buffer containing 10 mM HEPES (pH 8.0), 150 mM NaCl. Intensity of the measured spectra was corrected for the concomitant dilution of the WGR domain. Integral intensities (Ifl.) of fluorescence spectra were averaged over three independent measurements (mean ± SEM) and used to plot the corresponding Ifl. vs. ion concentration graphs. Data were fitted with the one site binding equation:2 [drawing 2]
# Where C is the concentration of divalent cations, Kd is a dissociation constant of the complex, Im and Ifl0 are maximal and initial values of Ifl., respectively.
# [4] = molecular target: T3, WGR domain of PARP2; assay: Circular dichroism spectroscopy of the WGR domain (BeStSel secondary structure analysis); set-up: content of a-helix in the WGR domain / content of b-sheet in the WGR domain / content of turn in the WGR domain / content of random coil in the WGR domain: unit not given here; conditions: for content of a-helix in the WGR domain / content of b-sheet in the WGR domain / content of random coil in the WGR domain / content of turn in the WGR domain: 5 mM ion, independent measurements
# Method: (§1) CD spectra of proteins were recorded within the 190-250 nm spectral range with 0.2 nm step using Jasco-810 spectrophotometer (Jasco, Japan) and the quartz […]® cuvette of 0.1 mm thickness (Hellma, Germany. Secondary structure analysis was performed using BeStSel webserver. To improve the reliability of the analysis, the content of canonical secondary structures of various types was predicted for 3-6 independent measurements, and the values were averaged. The statistical significance of the secondary structure difference was determined using the multiple t-test.
# [5] = molecular target: T2, PARP2; assay: Circular dichroism spectroscopy of PARP2 (BeStSel secondary structure analysis); set-up: Recombinant mouse full-length PARP2 was obtained in the baculovirus expression system; made in house; host or cells: Sf9 insect cells (baculovirus); gift of Prof; O. Lavrik; conditions: 0.3 mM Zn2+, 0.7 mM Ca2+ or 0.7 mM Mg2+
# Method: as §1
# T3 sequence (Q9UGN5 77-220): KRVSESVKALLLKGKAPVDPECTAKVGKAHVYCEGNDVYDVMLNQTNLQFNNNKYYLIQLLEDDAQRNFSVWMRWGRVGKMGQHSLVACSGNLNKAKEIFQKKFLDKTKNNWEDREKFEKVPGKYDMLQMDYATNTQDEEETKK
effect of EDTA on PARylation ([2]; Mg2+ 5 mM),effect of EDTA on PARylation ([2]; absence of divalent ions),Kd [3],effect of ions on the nucleosome structure [1],effect of ions on the structure of nucleosomes in PARP2-nucleosome complexes ([1]; PARP2 50 nM),effect of ions on the structure of the WGR domain (CD) [4],content of a-helix in the WGR domain [4],content of b-sheet in the WGR domain [4],content of random coil in the WGR domain [4],content of turn in the WGR domain [4],effect of ions on the CD spectrum / conformation of PARP2 [5],"effect of ions on efficiency of PARP2-mediated PARylation ([2]; Mg2+ 5 mM or Zn2+ 0.3 mM, PARP2 100 nM, nucleosomes 3 nM, NAD+ 0-5 µM)",Structure (SMILES),"effect of EDTA on PARP2-nucleosome complexes preformed in the presence of Zn2+ ([1]; EDTA 10 mM, Zn2+ 0.15 mM, PARP2 50 nM)",effect of EDTA on PARylation ([2]; Zn2+ 0.3 mM),effect of ions on intensity of tryptophan fluorescence of the WGR domain [3]
fully reverses the effect of Mg^2+ ions,does not affect PARylation,–,–,–,–,–,–,–,–,–,–,"O=C(O)CN(CCN(CC(=O)O)CC(=O)O)CC(=O)O [EDTA, ethylenediaminetetraacetic acid]",does not reverse the changes in the nucleosome structure,strongly enhances the efficiency of PARylation,–
–,–,29 ± 14 µM,minimally affect,not changed,only minimal changes,14.9 and 10.9 and 11.1,30.1 and 29.5 and 31.3,43.7 and 47.2 and 46.3,11.4 and 12.5 and 11.3,similar,–,"[Ca+2].[Cl-].[Cl-] [Ca2+, CaCl2]",–,–,considerably lower than the effect of Zn^2+ ions
–,–,180 ± 80 µM,minimally affect,not changed,only minimal changes,13.8 and 13.1 and 13.6,27.8 and 25.8 and 28.5,46 and 48.5 and 46.1,12.3 and 12.6 and 11.7,similar,increase,"[Cl-].[Cl-].[Mg+2] [Mg2+, MgCl2]",–,–,considerably lower than the effect of Zn^2+ ions
